The source of these data is patent US8883963B2 (Cadila Healthcare Limited, priority 2007, dated 2014).

In data set [1] the test system is RIN5F (Rat Insulinoma) cells. Description: In vitro glucose-dependent insulin secretion (RIN5F cell assay screening protocol). The data set is classed as cell-based. The following applies: 16.7 mM glucose load.
In another data set the target is T1, human glucagon receptor (Homo sapiens, UniProt P47871).
T1 construct: The full-length cDNA was cloned in pcDNA3.1 (Invitrogen); expressed in transfected cells
T1 sequence (P47871 26-477): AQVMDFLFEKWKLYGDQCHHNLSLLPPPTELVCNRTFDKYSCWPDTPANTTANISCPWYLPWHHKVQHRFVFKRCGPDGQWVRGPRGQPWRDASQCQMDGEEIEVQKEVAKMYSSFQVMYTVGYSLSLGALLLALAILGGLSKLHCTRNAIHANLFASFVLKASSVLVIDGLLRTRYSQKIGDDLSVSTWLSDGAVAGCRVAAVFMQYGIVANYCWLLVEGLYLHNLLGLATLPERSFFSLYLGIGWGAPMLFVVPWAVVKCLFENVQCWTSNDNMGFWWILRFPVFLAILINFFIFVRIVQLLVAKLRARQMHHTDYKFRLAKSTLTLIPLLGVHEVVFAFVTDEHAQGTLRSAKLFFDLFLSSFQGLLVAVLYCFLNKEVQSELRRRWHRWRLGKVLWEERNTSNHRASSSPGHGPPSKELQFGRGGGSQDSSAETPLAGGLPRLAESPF
Briefly: In vitro human glucagon antagonist activity (inhibition of cAMP production) in CHO/human glucagon R cells. The data set is classed as cell-based. The following applies: with saturated concentration of glucagon peptide.

A further data set addresses DPP IV (Homo sapiens, UniProt P27487). Description: Stability against DPP IV enzyme. The note with it: 37° C.; for % degradation of peptidomimetics in 24 h when incubated with DPP-IV enzyme: 2 μM peptidomimetic; for half-life at 2 μM: DPP IV enzyme, pH 7.8, 2 μM peptidomimetic, read-out: half-life (t1/2) when incubated with DPP-IV enzyme. The data set is classed as in vitro ADME. Here is the method:
(§1) Reactions were terminated by the addition of TFA/H2O (15 mL, 10% (v/v)). […] The column was equilibrated with TFA/H20, at a flow rate of 1 mL/min.

Data set [2] is described as follows: Stability in human plasma. The data set is classed as in vitro ADME. The note with it: 2 μM peptidomimetic, pooled human plasma, 37° C.; for half-life at 2 μM: pH 7.8, read-out: half-life (t1/2) when incubated with human plasma. How it is done: as §1
A short description of data set [3]: Stability in simulated gastric fluid. The data set is classed as in vitro ADME. The following applies: 2 μM peptidomimetic, simulated gastric fluid pH 1.5, 37° C.; for half-life at 2 μM: read-out: half-life (t1/2) when incubated with simulated gastric fluid. Here is the method: as §1
The nature of data set [4]: Stability in simulated intestinal fluid. The data set is classed as in vitro ADME. The following applies: 2 μM peptidomimetic, simulated intestinal fluid pH 7.5, 37° C.; for half-life at 2 μM: read-out: half-life (t1/2) when incubated with simulated intestinal fluid. How it is done: as §1
Data set [5] in a line: Stability in liver microsomes. The following applies: 2 μM peptidomimetic, human liver microsomes, 37° C. The data set is classed as in vitro ADME. Here is the method: as §1
The target in the next data set is T2, Human GLP-1 receptor (Homo sapiens, UniProt P43220).
T2 construct: The full-length cDNA was cloned in pcDNA3.1(+); expressed in transfected cells
T2 sequence (P43220 24-463): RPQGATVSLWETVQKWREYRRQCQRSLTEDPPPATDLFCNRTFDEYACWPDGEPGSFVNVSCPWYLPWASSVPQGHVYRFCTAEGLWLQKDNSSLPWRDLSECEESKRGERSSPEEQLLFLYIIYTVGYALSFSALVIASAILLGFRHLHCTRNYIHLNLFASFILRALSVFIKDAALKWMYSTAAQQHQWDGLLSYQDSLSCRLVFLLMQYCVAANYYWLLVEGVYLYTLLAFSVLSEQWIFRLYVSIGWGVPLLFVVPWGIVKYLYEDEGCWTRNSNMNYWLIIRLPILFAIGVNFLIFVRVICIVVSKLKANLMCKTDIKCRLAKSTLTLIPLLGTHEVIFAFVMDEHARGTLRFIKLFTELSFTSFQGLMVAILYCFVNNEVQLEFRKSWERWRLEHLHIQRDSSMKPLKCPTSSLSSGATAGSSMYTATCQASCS
Description: In vitro Human GLP-1 R agonist activity (cyclic AMP determination) in CHO/human GLP1R cells. The data set is classed as cell-based.

The structures appear in SMILES notation. Non-standard residues stand in square brackets, D forms with d. Residues, ends and D or L forms follow the SMILES beside them. ξ: configuration not given here. ξBip(2'-Et-4'-OMe) = CCc1cc(OC)ccc1-c1ccc(CC(N)C(=O)O)cc1; ξNva(5-(3-Cl-Ph)) = NC(CCCc1cccc(Cl)c1)C(=O)O; Ac5c = NC1(C(=O)O)CCCC1

Chain of DPP IV (P27487 whole entry, species assumed): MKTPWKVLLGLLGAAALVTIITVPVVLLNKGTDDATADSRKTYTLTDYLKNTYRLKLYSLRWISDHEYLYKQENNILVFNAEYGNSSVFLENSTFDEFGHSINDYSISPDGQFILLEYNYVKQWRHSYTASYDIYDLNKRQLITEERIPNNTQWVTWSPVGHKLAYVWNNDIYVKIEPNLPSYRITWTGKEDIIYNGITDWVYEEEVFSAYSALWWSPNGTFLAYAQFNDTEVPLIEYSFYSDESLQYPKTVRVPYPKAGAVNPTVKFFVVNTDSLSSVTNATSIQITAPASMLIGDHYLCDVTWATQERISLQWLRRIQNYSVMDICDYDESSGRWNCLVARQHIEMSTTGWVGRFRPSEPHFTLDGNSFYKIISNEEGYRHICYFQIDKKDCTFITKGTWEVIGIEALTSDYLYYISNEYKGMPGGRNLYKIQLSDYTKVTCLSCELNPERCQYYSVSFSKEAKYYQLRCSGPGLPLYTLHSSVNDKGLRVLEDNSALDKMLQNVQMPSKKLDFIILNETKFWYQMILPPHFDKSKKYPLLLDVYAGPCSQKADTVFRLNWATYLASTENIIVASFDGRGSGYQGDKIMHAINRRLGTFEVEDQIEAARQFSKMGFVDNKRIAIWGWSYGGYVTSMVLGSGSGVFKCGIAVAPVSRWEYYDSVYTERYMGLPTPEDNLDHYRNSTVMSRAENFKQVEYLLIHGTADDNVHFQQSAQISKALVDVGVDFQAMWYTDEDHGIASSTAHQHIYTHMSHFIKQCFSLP

Consider `CCc1cc(OC)ccc1-c1ccc(CC(NC(=O)[C@H](CC(=O)O)NC(=O)[C@H](CO)NC(=O)[C@@H](NC(=O)[C@H](Cc2ccccc2)NC(=O)[C@@H](NC(=O)CNC(=O)C(CCC#N)NC(=O)C(C)(C)NC(=O)[C@@H](N)Cc2c[nH]cn2)[C@@H](C)O)[C@@H](C)O)C(=O)NC(CCCc2cccc(Cl)c2)C(N)=O)cc1` (single isomer, unassigned) [compound 31], for which the Insulin secretion amounted to 16.8 ± 0.20 pg/µg/h in data set [1] (0.1 nM test compd.), 22.7 ± 0.29 pg/µg/h in data set [1] (1 nM test compd.) and 36.6 ± 0.31 pg/µg/h in data set [1] (10 nM test compd.). Moreover, the “Human Glucagon receptor antagonistic activity shown as inhibition of cAMP production of Glucagon peptide” value at human glucagon receptor (1 nM test compound) was determined as 6 ± 0.02 pmol/ml/μg prt; at human glucagon receptor (10 nM test compound), 5 ± 0.03 pmol/ml/μg prt; on human glucagon receptor (100 nM test compound) it was 2 ± 0.61 pmol/ml/μg prt; at human glucagon receptor (1 μM test compound), 0 pmol/ml/μg prt; at human glucagon receptor (10 μM test compound), 0 pmol/ml/μg prt. In addition, the “% degradation of peptidomimetics in 24 h when incubated with DPP-IV enzyme” value (“% degradation … with DPP-IV enzyme” for short) at DPP IV is 76%. Moreover, the “half-life (t1/2) when incubated with human plasma” value in data set [2] was “(9) h”. Moreover, in data set [2], the “% degradation of peptidomimetics in 24 h when incubated with human plasma” value (“% degradation … with human plasma” for short) is 78%. The “% degradation of peptidomimetics in 24 h when incubated with simulated gastric fluid” value (“% degradation … with simulated gastric fluid” below) in data set [3] is on record as 100%. In addition, the half-life at 2 μM was 0.5 h in data set [3]; 0.5 h in data set [4]; 0.5 h in data set [5] (pH 7.8, read-out: half-life (t1/2) when incubated with liver microsomes). For the same compound, in data set [4], the “% degradation of peptidomimetics in 24 h when incubated with simulated intestinal fluid” value (from here on “% degradation … with simulated intestinal fluid”) is 100%. Further, in data set [5], the “% degradation of peptidomimetics in 24 h when incubated with liver microsomes” value (from here on “% degradation … with liver microsomes”) amounted to 100%.

As for `CCc1cc(OC)ccc1-c1ccc(CC(CNC(CCCc2ccccc2F)C(N)=O)NC[C@H](CC(=O)O)NC(=O)[C@H](CO)NC(=O)[C@@H](NC(=O)C(C)(Cc2ccccc2F)NC(=O)[C@@H](NC(=O)CNC(=O)C(CCC#N)NC(=O)C(C)(C)NC(=O)[C@@H](N)Cc2c[nH]cn2)[C@H](C)O)[C@H](C)O)cc1` (single isomer, unassigned) [compound 204], the “Human GLP-1 R activity (cAMP release), % activity with respect to control” value at Human GLP-1 receptor (1 nM test compound) is 96 ± 0.02%; on Human GLP-1 receptor (10 nM test compound) it was 99 ± 0.46%; on Human GLP-1 receptor (100 nM test compound), 99 ± 0.41%; on Human GLP-1 receptor (1 μM test compound), 99 ± 0.66%; on Human GLP-1 receptor (10 μM test compound) it was 99 ± 0.03%. The “Human Glucagon receptor antagonistic activity shown as inhibition of cAMP production of Glucagon peptide” value on human glucagon receptor (1 nM test compound) was 6 ± 0.05 pmol/ml/μg prt; on human glucagon receptor (10 nM test compound) it was 5 ± 0.04 pmol/ml/μg prt; at human glucagon receptor (100 nM test compound), 2 ± 0.16 pmol/ml/μg prt; at human glucagon receptor (1 μM test compound), 0 pmol/ml/μg prt; at human glucagon receptor (10 μM test compound) it was 0 pmol/ml/μg prt. On DPP IV, the “% degradation … with DPP-IV enzyme” value is given as 00%. Also, the half-life at 2 μM (on DPP IV; in data set [2]; in data set [3]; in data set [4]) was over 24 h in each case. For the same compound, the “% degradation … with human plasma” value in data set [2] came to 00%. For the same compound, the “% degradation … with simulated gastric fluid” value in data set [3] was 00%. Also, in data set [4], the “% degradation … with simulated intestinal fluid” value is on record as 00%. For the same compound, the “half-life (t1/2) when incubated with liver microsomes” value (“half-life … with liver microsomes” below) in data set [5] is given as “(5) h”. For the same compound, in data set [5], the “% degradation … with liver microsomes” value turned out to be 32%.

Consider `CCc1cc(OC)ccc1-c1ccc(CC(NC(=O)[C@H](CC(=O)O)NC(=O)[C@H](CO)NC(=O)[C@@H](NC(=O)C(C)(Cc2ccccc2F)NC(=O)[C@@H](NC(=O)CNC(=O)C(CCC#N)NC(=O)C(C)(C)NC(=O)[C@H](Cc2c[nH]cn2)NC(C)=O)[C@@H](C)O)[C@@H](C)O)C(=O)NC(CCCc2ccccc2)C(N)=O)cc1` (single isomer, unassigned) [compound 205], for which the “Human GLP-1 R activity (cAMP release), % activity with respect to control” value is 96 ± 0.09% at Human GLP-1 receptor (1 nM test compound); 99 ± 0.07% at Human GLP-1 receptor (10 nM test compound); 99 ± 0.04% on Human GLP-1 receptor (100 nM test compound); 99 ± 0.01% on Human GLP-1 receptor (1 μM test compound); 99 ± 0.08% on Human GLP-1 receptor (10 μM test compound). The “Human Glucagon receptor antagonistic activity shown as inhibition of cAMP production of Glucagon peptide” value is on record as 4 ± 0.16 pmol/ml/μg prt on human glucagon receptor (1 nM test compound); 2 ± 0.11 pmol/ml/μg prt at human glucagon receptor (10 nM test compound); 0 pmol/ml/μg prt on human glucagon receptor (100 nM test compound); 0 pmol/ml/μg prt on human glucagon receptor (1 μM test compound); 0 pmol/ml/μg prt on human glucagon receptor (10 μM test compound). In addition, the “% degradation … with DPP-IV enzyme” value on DPP IV came out at 00%. The half-life at 2 μM (at DPP IV; in data set [2]; in data set [3]; in data set [4]) was over 24 h in each case. In data set [2], the “% degradation … with human plasma” value was found to be 00%. Also, in data set [3], the “% degradation … with simulated gastric fluid” value was 00%. Also, the “% degradation … with simulated intestinal fluid” value in data set [4] is on record as 00%. Also, the “half-life … with liver microsomes” value in data set [5] is “(5) h”. Also, the “% degradation … with liver microsomes” value in data set [5] amounted to 33%.

For the compound `CCc1cc(OC)ccc1-c1ccc(CC(NC(=O)[C@H](CC(=O)O)NC(=O)[C@H](CO)NC(=O)[C@@H](NC(=O)C(C)(Cc2ccccc2F)NC(=O)[C@@H](NC(=O)CNC(=O)C(CCC#N)NC(=O)C(C)(C)NC(=O)[C@H](Cc2c[nH]cn2)NC(C)=O)[C@@H](C)O)[C@@H](C)O)C(=O)NC(CCCc2ccccc2F)C(N)=O)cc1` (single isomer, unassigned) [compound 207], the “Human GLP-1 R activity (cAMP release), % activity with respect to control” value on Human GLP-1 receptor (1 nM test compound) is 40 ± 0.11%; at Human GLP-1 receptor (10 nM test compound) it was 81 ± 0.09%; at Human GLP-1 receptor (100 nM test compound), 89 ± 0.06%; at Human GLP-1 receptor (1 μM test compound), 96 ± 0.14%; on Human GLP-1 receptor (10 μM test compound), 99 ± 0.19%. Besides, the “Human Glucagon receptor antagonistic activity shown as inhibition of cAMP production of Glucagon peptide” value on human glucagon receptor (1 nM test compound), on human glucagon receptor (10 nM test compound), on human glucagon receptor (100 nM test compound), on human glucagon receptor (1 μM test compound) and on human glucagon receptor (10 μM test compound) was 0 pmol/ml/μg prt throughout. In addition, the “% degradation … with DPP-IV enzyme” value on DPP IV is reported as 00%. In addition, the half-life at 2 μM (on DPP IV; in data set [2]; in data set [3]; in data set [4]) was over 24 h in each case. Besides, the “% degradation … with human plasma” value in data set [2] is listed as 00%. In data set [3], the “% degradation … with simulated gastric fluid” value was 00%. Besides, the “% degradation … with simulated intestinal fluid” value in data set [4] is recorded as 00%. The “half-life … with liver microsomes” value in data set [5] is listed as “(5) h”. In addition, in data set [5], the “% degradation … with liver microsomes” value is recorded as 26%.

Turning to `CCc1cc(OC)ccc1-c1ccc(CC(NC(=O)[C@H](CC(=O)O)NC(=O)[C@H](CO)NC(=O)[C@@H](NC(=O)[C@H](Cc2ccccc2)NC(=O)[C@@H](NC(=O)CNC(=O)[C@H](CCC(N)=O)NC(=O)C2(NC(=O)[C@@H](N)Cc3c[nH]cn3)CCCC2)[C@@H](C)O)[C@@H](C)O)C(=O)NC(CCCc2cccc(Cl)c2)C(N)=O)cc1` (stereo partly drawn) [compound 27] (H-H[Ac5c]QGTFTSD[ξBip(2'-Et-4'-OMe)][ξNva(5-(3-Cl-Ph))]-NH2), the Insulin secretion in data set [1] (0.1 nM test compd.) amounted to 16.4 ± 0.12 pg/µg/h. Further, the Insulin secretion in data set [1] (1 nM test compd.) is 22.7 ± 0.17 pg/µg/h. In data set [1] (10 nM test compd.), this compound registered an Insulin secretion of 36.6 ± 0.05 pg/µg/h. Moreover, on DPP IV, the “% degradation … with DPP-IV enzyme” value is 00% and the half-life at 2 μM was over 24 h. Further, in data set [2], the “% degradation … with human plasma” value is on record as 00% and the half-life at 2 μM was over 24 h. Moreover, in data set [3], the “% degradation … with simulated gastric fluid” value is 00% and the half-life at 2 μM is over 24 h. For the same compound, in data set [4], the “% degradation … with simulated intestinal fluid” value was 00% and the half-life at 2 μM was over 24 h. In addition, in data set [5], the “half-life … with liver microsomes” value was “(5) h” and the “% degradation … with liver microsomes” value was 31%.
